# Target: T1, human CaMKIIδ (Homo sapiens, UniProt Q13557)
# T1 construct: Full-length, glutathione-S-transferase(GST)-tagged, human CaMKIIδ was purchased from Carna Biosciences; purchased Carna Biosciences (CaMKIIδ); Wako Pure Chemical Industries (calmodulin) 02-111
# Assay: Evaluation of in vitro CaMKII inhibitory activity (binding assay, TR-FRET)
# Details: human CaMKIIδ, TR-FRET binding assay; class symbols A/B/C; read-out: Act (CaMKII inhibitory activity, binding assay)
# Procedure: Evaluation of In Vitro CaMKII Inhibitory Activity (Binding Assay)
# In vitro CaMKIIδ inhibitory activity was evaluated by a binding assay.
# Full-length bovine calmodulin was purchased from Wako Pure Chemical Industries (Osaka, Japan). Terbium-labeled anti-GST anti body (Tb-anti-GST Ab) was purchased from Life Technologies (Carlsbad, CA, USA). Fluorescent probe ligand, 5,5-difluoro-7,9-dimethyl-3-(3-oxo-3-((3-((4-(3-(piperazin-1-yl)phenyl)pyrimidin-2-yl)amino)phenyl)amino) propyl)-5H-dipyrrolo[1,2-c:2′,1′-f]
# Time-resolved fluorescence resonance energy transfer (TR-FRET) assay
# The fluorescent probe ligand, 5,5-difluoro-7,9-dimethyl-3-(3-oxo-3-((3-((4-(3-(piperazin-1-yl)phenyl)pyrimidin-2-yl)amino)phenyl)amino) propyl)-5H-dipyrrolo[1,2-c:2′,1′-f] […] After shaded incubation of the protein-probe mixture on ice for 30 min, the premix was dispensed in the assay plate including test inhibitors with 4 fold dilution series of eight concentrations. After 1 hr incubation at room temperature, TR-FRET signals were measured in duplicate using an EnVision microplate reader (Perkin Elmer, Waltham, MA, USA).
# The half maximal inhibitory concentration (IC50) of test compounds was calculated by fitting the data with the logistic equation using XLfit (IDBS, Guildford, UK).
row,Compound,IC50
1,COc1ccc(-c2cnn3ccc(-c4ccc(F)c(O[C@@H](C)Cn5cnnn5)c4)nc23)cc1 [compound 30],< 10 nM
2,COc1ccnc(-c2cnc3ccc(-c4ccc(F)c(N(C)[C@@H](C)Cn5cnnn5)c4)nn23)c1C#N [compound 479],> 100 nM
3,COc1cc(F)cc(-c2cnc3ccc(-c4cc(N[C@@H](C)Cn5cnnn5)ccn4)nn23)c1C#N [compound 481],< 10 nM
4,C[C@@H](Cn1cnnn1)Oc1cc(-c2ccc3ncn(-c4cccn(C)c4=O)c3n2)ccc1F [compound 176],10 to 100 nM
5,C[C@@H](Cn1cnnn1)Oc1cc(-c2ccc3ncn(-c4cnn(C)c4)c3n2)ccc1F [compound 120],10 to 100 nM
6,C[C@@H](Cn1cnnn1)Oc1cccc(-c2ccn3ncc(-c4cccc(C(=O)O)c4)c3n2)c1 [compound 16],< 10 nM
7,C[C@@H](Cn1cnnn1)Oc1cc(-c2ccc3ncc(-c4cccn(C)c4=O)n3n2)ccc1F [compound 196],< 10 nM
8,CC(=O)Nc1ccc(-c2cnn3ccc(-c4ccc(F)c(O[C@@H](C)Cn5cnnn5)c4)nc23)cc1 [compound 38],< 10 nM
9,C[C@@H](Cn1cnnn1)Oc1cccc(-c2ccn3ncc(-c4cccc(C(=O)NCCn5ccnc5)c4)c3n2)c1 [compound 95],< 10 nM
10,C[C@@H](Cn1cnnn1)Oc1cccc(-c2ccn3ncc(-c4cccc(C(=O)NCC5CC5)c4)c3n2)c1 [compound 63],< 10 nM
11,COCCOCCOCCOc1cccc(-c2cnc3ccc(-c4ccc(F)c(O[C@@H](C)Cn5cnnn5)c4)nn23)c1C#N [compound 212],< 10 nM
12,C[C@@H](Cn1cnnn1)Oc1cc(-c2ccc3ncc(-c4cccc(OCCN5CCCC5=O)c4C#N)n3n2)ccc1F [compound 207],< 10 nM
13,"Cc1nn2ccc(-c3ccc(F)c(O[C@@H](C)Cn4cnnn4)c3)nc2c1-c1cccs1 [Example 57, 1-[(2S)-2-{2-fluoro-5-[2-methyl-3-(thiophen-2-yl)pyrazolo[1,5-a]pyrimidin-5-yl]phenoxy}propyl]-1H-tetrazole]",10 to 100 nM
14,C[C@@H](Cn1cnnn1)Oc1cc(-c2ccn3ncc(-c4cccc(N5CCOCC5)c4)c3n2)ccc1F [compound 47],10 to 100 nM
15,C[C@@H](Cn1cnnn1)Oc1cc(-c2ccn3ncc(-c4ccsc4C#N)c3n2)ccc1F [compound 162],< 10 nM
16,C[C@@H](Cn1cnnn1)Oc1cc(-c2ccn3ncc(-c4ccccc4C#N)c3n2)ccc1F [compound 28],< 10 nM
17,C[C@@H](Cn1cnnn1)Oc1cccc(-c2ccn3ncc(-c4cccc(C(=O)Nc5ccncc5)c4)c3n2)c1 [compound 82],< 10 nM
18,C[C@@H](Cn1cnnn1)Oc1cc(-c2ccc3ncc(-c4cc(C#N)c[nH]c4=O)n3n2)ccc1F [compound 220],< 10 nM
19,C[C@@H](Cn1cnnn1)Oc1cc(-c2ccc3ncn(-c4ccn(C)n4)c3n2)ccc1F [compound 122],< 10 nM
20,C[C@@H](Cn1cnnn1)Oc1cc(-c2ccn3ncc(-c4ccco4)c3n2)ccc1F [compound 18],< 10 nM
21,C[C@@H](Cn1cnnn1)Oc1cccc(-c2ccn3ncc(-c4cccc(C(=O)NCCCCN(C)C)c4)c3n2)c1 [compound 104],< 10 nM
22,C[C@@H](Cn1cnnn1)Oc1cc(-c2ccc3ncn(-c4ccccc4C#N)c3n2)ccc1F [compound 151],< 10 nM
23,CC(=O)NCCNC(=O)c1cccc(-c2cnn3ccc(-c4cccc(O[C@@H](C)Cn5cnnn5)c4)nc23)c1 [compound 90],< 10 nM
24,CNC(=O)c1cccc(-c2cnn3ccc(-c4ccc(F)c(O[C@@H](C)Cn5cnnn5)c4)nc23)c1 [compound 35],< 10 nM
25,C[C@@H](Cn1cnnn1)Oc1cccc(-c2ccn3ncc(-c4cccc(C(=O)NC5CCN(C)C(=O)C5)c4)c3n2)c1 (some centres unmarked) [compound 112],< 10 nM
26,C[C@@H](Cn1cnnn1)Oc1cccc(-c2ccn3ncc(-c4cccc(C(=O)NC5CN(C)C5)c4)c3n2)c1 [compound 70],< 10 nM
27,COc1ncc(C#N)cc1-c1cnc2ccc(-c3ccc(F)c(O[C@@H](C)Cn4cnnn4)c3)nn12 [compound 219],< 10 nM

# Same assay, conditions: in vitro CaMKII inhibitory activity (binding assay), human CaMKIIδ; read-out: Act
row,Compound,IC50
1,"C[C@@H](Cn1cnnn1)Oc1cncc(-c2ccc3ncc(-c4ccccc4C#N)n3n2)c1 [Example 244, 2-[6-(5-{[(2S)-1-(1H-tetrazol-1-yl)propan-2-yl]oxy}pyridin-3-yl)imidazo[1,2-b]pyridazin-3-yl]benzonitrile]",< 10 nM
2,"CNc1ccnc(-c2cnc3ccc(-c4cccc(O[C@@H](C)Cn5cnnn5)c4)nn23)c1C#N [Example 358, 4-(methylamino)-2-[6-(3-{[(2S)-1-(1H-tetrazol-1-yl)propan-2-yl]oxy}phenyl)imidazo[1,2-b]pyridazin-3-yl]pyridine-3-carbonitrile]",< 10 nM
3,"C[C@@H](Cn1cnnn1)Oc1cccc(-c2ccc3ncc(-c4nc(F)ccc4C#N)n3n2)c1 [Example 467, 6-fluoro-2-[6-(3-{[(2S)-1-(1H-tetrazol-1-yl)propan-2-yl]oxy}phenyl)imidazo[1,2-b]pyridazin-3-yl]pyridine-3-carbonitrile]",< 10 nM
4,C[C@@H](Cn1cnnn1)Oc1cccc(-c2ccc3ncn(-c4cc(OC(F)F)ccc4C#N)c3n2)n1 [compound 385],> 100 nM
5,C[C@@H](Cn1cnnn1)Oc1cccc(-c2ccc3ncc(-c4nc(Cl)ccc4C#N)n3n2)c1 [compound 386],< 10 nM
6,COCCCn1ncc(-c2cnc3ccc(-c4ccc(F)c(O[C@@H](C)Cn5cnnn5)c4)nn23)c1C(=O)NCCOC [compound 237],> 100 nM
7,C[C@@H](Cn1cnnn1)Oc1cccc(-c2ccc3ncc(-c4cccc(F)c4C#N)n3n2)n1 [compound 419],< 10 nM
8,"C[C@@H](Cn1cnnn1)Oc1cc(-c2ccc3ncn(-c4cc(F)ccc4C#N)c3n2)ncn1 [Example 305, 4-fluoro-2-[5-(6-{[(2S)-1-(1H-tetrazol-1-yl)propan-2-yl]oxy}pyrimidin-4-yl)-3H-imidazo[4,5-b]pyridin-3-yl]benzonitrile]",10 to 100 nM
9,COCCn1cccc(-c2cnc3ccc(-c4cccc(O[C@@H](C)Cn5cnnn5)c4)nn23)c1=O [compound 254],< 10 nM
10,C[C@@H](Cn1cnnn1)Oc1cccc(-c2ccc3ncc(-c4ccccc4CN(C)C)n3n2)c1 [compound 307],10 to 100 nM
11,"C[C@@H](Cn1cnnn1)Oc1cccc(-c2ccn3nc(F)c(-c4cc(F)ccc4C#N)c3n2)c1 [Example 379, 4-fluoro-2-[2-fluoro-5-(3-{[(2S)-1-(1H-tetrazol-1-yl)propan-2-yl]oxy}phenyl)pyrazolo[1,5-a]pyrimidin-3-yl]benzonitrile]",< 10 nM
12,C[C@@H](Cn1cnnn1)Oc1cccc(-c2ccc3ncc(-c4ccnc(Cl)c4C#N)n3n2)c1 [compound 260],< 10 nM
13,C[C@@H](Cn1cnnn1)Oc1cc(-c2ccc3ncc(-c4nccc(N(C(=O)OC(C)(C)C)C(=O)OC(C)(C)C)c4C#N)n3n2)ccc1F [compound 232],< 10 nM
14,C[C@@H](Cn1cnnn1)Oc1cccc(-c2ccc3ncc(-c4cc(F)cnc4OCC(F)(F)F)n3n2)c1 [compound 338],< 10 nM
15,C[C@@H](Cn1cnnn1)Oc1cccc(-c2ccc3ncc(-c4nc(C(F)(F)F)ccc4C#N)n3n2)c1 [compound 349],10 to 100 nM
16,C[C@@H](Cn1cnnn1)Oc1cc(-c2ccc3ncc(-c4cc(F)c[nH]c4=O)n3n2)ccc1F [compound 314],< 10 nM
17,COc1cc(-c2cnc3ccc(-c4cccc(O[C@@H](C)Cn5cnnn5)c4)nn23)c(F)cn1 [compound 351],< 10 nM
18,C[C@@H](Cn1cnnn1)Oc1cccc(-c2ccc3ncc(-c4cccn(CC(F)F)c4=O)n3n2)c1 [compound 340],< 10 nM
19,"C[C@@H](Cn1cnnn1)Oc1cc(-c2ccc3ncn(-c4cc(F)ccc4C#N)c3n2)cnn1 [Example 347, 4-fluoro-2-[5-(6-{[(2S)-1-(1H-tetrazol-1-yl)propan-2-yl]oxy}pyridazin-4-yl)-3H-imidazo[4,5-b]pyridin-3-yl]benzonitrile]",10 to 100 nM
20,C[C@@H](Cn1cnnn1)Oc1cc(-c2ccc3ncc(-c4cccnc4C#N)n3n2)ccc1F [compound 248],< 10 nM
21,C[C@@H](Cn1cnnn1)Oc1cccc(-c2ccc3ncc(-c4nccc(OCC5COC5)c4C#N)n3n2)c1 [compound 352],< 10 nM
22,C[C@@H](Cn1cnnn1)Oc1cc(-c2ccc3ncc(-c4nccc(NC(=O)OC(C)(C)C)c4C#N)n3n2)ccc1F [compound 231],< 10 nM
23,COc1cccc(-c2cnc3ccc(-c4cccc(O[C@@H](C)Cn5cnnn5)c4)nn23)c1C#N [compound 322],< 10 nM
24,"COc1cc(F)cc(-c2cnc3ccc(-c4ccc(F)c(O[C@@H](C)Cn5cnnn5)n4)nn23)c1C#N [Example 447, 4-fluoro-2-[6-(5-fluoro-6-{[(2S)-1-(1H-tetrazol-1-yl)propan-2-yl]oxy}pyridin-2-yl)imidazo[1,2-b]pyridazin-3-yl]-6-methoxybenzonitrile]",< 10 nM
25,C[C@@H](Cn1cnnn1)Oc1cc(-c2ccc3ncc(-c4c(C#N)c(=O)ccn4CF)n3n2)ccc1F [compound 436],10 to 100 nM
26,"COc1cc(-c2cnc3ccc(-c4cccc(O[C@@H](C)Cn5cnnn5)c4)nn23)c(C#N)cn1 [Example 289, 6-methoxy-4-[6-(3-{[(2S)-1-(1H-tetrazol-1-yl)propan-2-yl]oxy}phenyl)imidazo[1,2-b]pyridazin-3-yl]pyridine-3-carbonitrile]",< 10 nM

# Source: patent US12528816B2, “Substituted imidazo [1,2-b] pyridazines and [1, 2, 4] triazolo [ 4,3-b] pyridazines as camkii inhibitors” (Cardurion Pharmaceuticals, INC., priority 2020, dated 2026)
